{
  "source": "patent US20120201868A1",
  "about": "“TREATMENT AND PREVENTION OF HIV INFECTION” (priority 2009, published 2012)",
  "key": {"[1]": {"assay": "Plasma kinetics after intravenous injection of brecanavir solution in rats", "type": "in vivo", "conditions": "for clearance / AUC(0-t): rat, plasma, iv", "protocol": "FIG. 1: Individual plasma concentration (ng/ml) versus time profiles following intravenous dosing of a solution of brecanavir in rats at 2 mg/kg.\nBrecanavir was injected intraveneously as a 1 mg/ml solution (PEG400/saline 70:30) in rats (n=3) to determine the plasma kinetics of brecanavir in these animals. Plasma samples were collected from each of the rats at selected time points after administration; samples were analyzed for brecanavir concentrations with LC/MS. (See FIG. 1.)"}, "[2]": {"system": "wild type HIV as well as mutated variants", "conditions": "in words; cited from earlier work"}, "[3]": {"assay": "Plasma kinetics after single subcutaneous injection of brecanavir solution in rats", "type": "in vivo, Sprague-Dawley rats", "conditions": "for bioavailability: s.c. solution, read-out: average absolute bioavailability (F)", "protocol": "FIG. 2: Individual and mean plasma concentrations of brecanavir following single subcutaneous injection of a brecanavir solution to rats at 16 (Δ) and 56 mg/kg (∘).\nSprague-Dawley rats (Crl:CD® (SD)IGS) of 200-300 g were injected once subcutaneously with an aqueous solution of brecanavir at 16 (n=4) and at 56 (n=4) mg/kg. The solution was prepared one day before dose administration; brecanavir was formulated in an aqueous 30% (w/v) DMA/50% (w/v) PEG400 solution at 35 mg/ml. The ingredients of the solution were: brecanavir, DMA 30% (w/v), PEG 400 50% (w/v) and pyrogenic free water. The content of brecanavir in the formulation was checked using LC-UV. The concentration of brecanavir in the formulation was 35 mg/ml.\nBlood samples (0.3 ml on EDTA) were collected from the rats via the tail vein at 1, 2, 4, 7 and 24 h and further at 3, 4, 8, 14, 29, 42 and 56 days after dosing. Plasma samples were analyzed for brecanavir with a qualified research method on LC/MS/MS. Plasma concentrations were plotted as a function of time after dosing (FIG. 2). Pharmacokinetic parameters were calculated using WinNonlin software. Subcutaneous injection of an aqueous solution of brecanavir in rats produced an extended release pharmacokinetic profile with duration of at least 8 weeks (FIG. 2)."}, "[4]": {"conditions": "in vivo, po; cited from earlier work"}, "[5]": {"conditions": "individual rats, i.v. solution, 2 mg/kg"}, "[6]": {"conditions": "mean of n=3 rats, i.v. solution, 2 mg/kg"}, "[7]": {"conditions": "2 mg/kg, mean of n=3 rats, i.v. solution"}, "[8]": {"conditions": "individual rats, single s.c. solution, 16 mg/kg"}, "[9]": {"conditions": "individual rats, single s.c. solution, 56 mg/kg"}},
  "note": "“And” between values parts separate entries of the source, which are not always exact repeats. Equal values may be shown once. Read-outs that look alike come from different tables or passages of the source.",
  "data": [
    {"smiles": "Cc1nc(COc2ccc(C[C@H](NC(=O)O[C@H]3CO[C@H]4OCC[C@H]43)[C@H](O)CN(CC(C)C)S(=O)(=O)c3ccc4c(c3)OCO4)cc2)cs1", "note": "[brecanavir, [(3R,3aS,6aR)-2,3,3a,4,5,6a-hexahydro-furo[5,4-b]furan-3-yl] N-[(2S,3R)-4-(1,3-benzodioxol-5-ylsulfonyl-(2-methylpropyl)-amino)-3-hydroxy-1-[4-[(2-methyl-1,3-thiazol-4-yl)methoxy]phenyl]butan-2-yl]-carbamate]", "values": [
      {"measurement": "AUClast", "setting": "[1]; individual rats, i.v. solution (PEG400/saline 70:30, 1 mg/ml), 2 mg/kg", "result": "1.066 µg·h/mL and 1.149 µg·h/mL"},
      {"measurement": "Cl", "setting": "[1]; [5]", "result": "1.8 L/h/kg and 1.7 L/h/kg"},
      {"measurement": "Vc", "setting": "[1]; [5]", "result": "0.70 L/kg and 0.46 L/kg and 0.52 L/kg"},
      {"measurement": "t1/2β", "setting": "[1]; [5]", "result": "2.3 h and 1.5 h (2×)"},
      {"measurement": "Vc", "setting": "[1]; [6]", "result": 0.56, "unit": "L/kg"},
      {"measurement": "t1/2β", "setting": "[1]; [6]", "result": 1.8, "unit": "h"},
      {"measurement": "clearance", "setting": "[1]; 2 mg/kg, individual rats, i.v. solution", "result": 1.4, "unit": "L/h/kg"},
      {"measurement": "AUC(0-t)", "setting": "[1]; 2 mg/kg, individual rats, i.v. solution (PEG400/saline 70:30, 1 mg/ml), 2 mg/kg", "result": 1.37, "unit": "µg·h/mL"},
      {"measurement": "AUC(0-t)", "setting": "[1]; [7]", "result": 1.2, "unit": "µg·h/mL"},
      {"measurement": "clearance", "setting": "[1]; [7]", "result": 1.7, "unit": "L/h/kg"},
      {"measurement": "distribution volume", "setting": "[1]; rats, i.v. injection, in words", "result": "moderate to small distribution volume"},
      {"measurement": "plasma clearance", "setting": "[1]; rats, i.v. injection, in words", "result": "moderate plasma clearance"},
      {"measurement": "activity against wild type HIV and mutated variants", "setting": "[2]", "result": "pronounced activity"},
      {"measurement": "AUC(0-t)", "setting": "[3]; Sprague-Dawley (Crl:CD(SD)IGS), rat, plasma, sc, 16 mg/kg, individual rats, single s.c. solution, 16 mg/kg", "result": 6.5, "unit": "µg·h/mL"},
      {"measurement": "AUC(0-t)", "setting": "[3]; Sprague-Dawley (Crl:CD(SD)IGS), rat, plasma, sc, 16 mg/kg, mean of n=4 rats, single s.c. solution, 16 mg/kg", "result": 8.72, "unit": "µg·h/mL"},
      {"measurement": "Cmax", "setting": "[3]; Sprague-Dawley (Crl:CD(SD)IGS), rat, plasma, sc, 16 mg/kg, mean of n=4 rats, single s.c. solution, 16 mg/kg, read-out: Cmax", "result": 0.369, "unit": "µg/mL"},
      {"measurement": "AUC(0-t)", "setting": "[3]; Sprague-Dawley (Crl:CD(SD)IGS), rat, plasma, sc, 56 mg/kg, individual rats, single s.c. solution, 56 mg/kg", "result": 29.9, "unit": "µg·h/mL"},
      {"measurement": "AUC(0-t)", "setting": "[3]; Sprague-Dawley (Crl:CD(SD)IGS), rat, plasma, sc, 56 mg/kg, mean of n=4 rats, single s.c. solution, 56 mg/kg", "result": 21.7, "unit": "µg·h/mL"},
      {"measurement": "Cmax", "setting": "[3]; Sprague-Dawley (Crl:CD(SD)IGS), rat, plasma, sc, 56 mg/kg, mean of n=4 rats, single s.c. solution, 56 mg/kg, read-out: Cmax", "result": 0.322, "unit": "µg/mL"},
      {"measurement": "bioavailability", "setting": "[3]; Sprague-Dawley (Crl:CD(SD)IGS), rat, plasma, sc, rats, 16 mg/kg", "result": 91, "unit": "%"},
      {"measurement": "bioavailability", "setting": "[3]; Sprague-Dawley (Crl:CD(SD)IGS), rat, plasma, sc, rats, 56 mg/kg", "result": 66, "unit": "%"},
      {"measurement": "Cmax", "setting": "[3]; individual rats, single s.c. solution (30% DMA/50% PEG400, 35 mg/ml), 16 mg/kg", "result": "0.273 µg/mL and 0.289 µg/mL and 0.591 µg/mL and 0.234 µg/mL"},
      {"measurement": "AUClast", "setting": "[3]; [8]", "result": "9.63 µg·h/mL and 9.291 µg·h/mL and 9.448 µg·h/mL"},
      {"measurement": "t1/2λz", "setting": "[3]; [8]", "result": "10.9 days and 5.58 days and 22.3 days and 17 days"},
      {"measurement": "AUClast", "setting": "[3]; [9]", "result": "17.602 µg·h/mL and 24.284 µg·h/mL and 15.221 µg·h/mL"},
      {"measurement": "Cmax", "setting": "[3]; [9]", "result": "0.36 µg/mL and 0.204 µg/mL and 0.417 µg/mL and 0.305 µg/mL"},
      {"measurement": "t1/2λz", "setting": "[3]; [9]", "result": "53 days and 16.2 days and 19.2 days and 44.67 days"},
      {"measurement": "t1/2λz", "setting": "[3]; mean of n=4 rats, single s.c. solution, 16 mg/kg", "result": 14, "unit": "days"},
      {"measurement": "t1/2λz", "setting": "[3]; mean of n=4 rats, single s.c. solution, 56 mg/kg", "result": 33.2, "unit": "days"},
      {"measurement": "duration of extended release pharmacokinetic profile", "setting": "[3]; rats, s.c. aqueous solution", "result": "at least 8 weeks"},
      {"measurement": "absorption into the systemic circulation", "setting": "[3]; rats, s.c. injection of a high dose solution, in words", "result": "very slow absorption"},
      {"measurement": "brecanavir exposures", "setting": "[4]", "result": "insufficient to inhibit PI-resistant virus"}
    ]}
  ]
}
